Reference: PubChem BioAssay (NCI)
Several values for one entry are separate records, joined by “and”; a condition that tells them apart may be missing. Identical values can stand only once.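 Five concentrations, 48 hours, 96-well plates. At the GI50, growth is halved. TGI: total growth inhibition.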

System: MDA-MB-468 breast
Assay: NCI tumour cell line growth inhibition, 48 h

SMILES | GI50 | TGI
Cc1cc(Nc2cc(N3CCN(C)CC3)nc(C#Cc3ccccc3)n2)n[nH]1 | 1670 nM | 6530 nM
Cc1cc2c(-c3nc4ccccn4c3NC34CC5CC(CC(C5)C3)C4)c(O)c(O)cc2c(O)c1-c1c(C)cc2c(-c3nc4ccccn4c3NC34CC5CC(CC(C5)C3)C4)c(O)c(O)cc2c1O | 143 nM | 1570 nM
N#CC1=C(N)Oc2c(sc3c(Br)cccc23)C1c1ccc(F)cc1 (stereo not drawn) | 333 nM | 6410 nM
N#Cc1c(-c2ccc(Cl)cc2)csc1NC(=O)Nc1cccc(C(F)(F)F)c1 | 2180 nM | 8270 nM
CC[C@H](C)[C@H](NC(=O)N[C@@H](C)c1ccccc1)C(=O)N(C)[C@H](C[C@@H](OC(C)=O)c1nc(C(=O)N[C@@H](Cc2ccccc2)C[C@H](C)C(=O)OC)cs1)C(C)C | 3600 nM | 24900 nM
O=C1c2c(O)ccc(O)c2C(=O)c2c(NCCNCCO)ccc(NCCNCCO)c21 | 83.5 nM | 346 nM
O=C(Nc1nc2ccc(F)cc2s1)c1cccnc1Nc1ccc(Cl)cc1Cl | 786 nM | 20200 nM
Oc1ccc(CSc2nnc(-c3ccc(Oc4ccccc4)cc3)n2-c2ccccc2)c2cccnc12 | 180 nM | 6810 nM
O=C(Nc1cccc(Cl)c1)c1cc(Cl)ccc1O | 1750 nM | 7230 nM
COc1cc(/C=C2\C(=O)Nc3ccc(Br)cc32)cc(OC)c1OC | 3290 nM | > 100000 nM
COc1ccc(-c2nn3ncccc3c2-c2ccnc(Nc3cccc(C(F)(F)F)c3)n2)cc1 | 4620 nM | 14100 nM
COc1ccccc1-c1nccc(COc2ccccc2C[C@@H](Oc2ncnc3sc(-c4ccc(F)cc4)c(-c4ccc(OCCN5CCN(C)CC5)c(Cl)c4C)c23)C(=O)O)n1 | < 10 nM | 12.1 nM
Cc1ccc2c(C(C[N+](=O)[O-])c3ccco3)c(-c3ccccc3)[nH]c2c1 (stereo not drawn) | 7260 nM | 71200 nM
COc1ccc(-c2nn(-c3cccc(Cl)c3)cc2-c2cc(-c3cccs3)no2)cc1 | 2680 nM | 12300 nM
Cc1cc(C(=O)Nc2cc(Nc3ncccc3-c3ncnc4nc[nH]c34)ccc2F)cc(C(C)(C)C#N)c1 | 10300 nM | > 100000 nM
COc1ccc2nc3cc(Cl)ccc3c(Nc3ccc(O)c(CN4CCCC4)c3)c2c1 | 1850 nM | 3650 nM
Cc1cc([C@H](C)Nc2nccc(N3C(=O)OC[C@@H]3[C@H](C)F)n2)ncc1-c1ccnc(C(F)(F)F)c1 | 9500 nM | 79600 nM
Oc1cccc(-c2nc(N3CCOCC3)c3oc4ncccc4c3n2)c1 | 576 nM and 375 nM | 2370 nM and 2150 nM
CCn1c(-c2nonc2N)nc2c(C#CC(C)(C)O)ncc(OC[C@@H]3CCCN3)c21 | 232 nM | 7190 nM
Cc1ccc(S(=O)c2ccc([N+](=O)[O-])c3nonc23)cc1 (stereo not drawn) | 1750 nM | 3650 nM
CCCCCCCCCCCCCCCCCCNC(=O)[C@H]1CSC(c2ccc(F)c(OC)c2)N1 (stereo partly drawn) | 1840 nM | > 50000 nM
NC1(C(=O)O)CSSC1 | 2100 nM | 7890 nM

SMILES | GI50 | TGI
CC(=O)c1c(Nc2ccc(F)c(F)c2F)[nH]c2c(F)cc(F)cc2c1=O | 261 nM | 789 nM
O=c1c2ccccc2c(=O)c2c1sc1c(=O)c3ccc(O)cc3c(=O)c12 | 1520 nM | 4000 nM
NC(=O)c1cc(-c2ccc3ncnc(N4CCc5cc(F)c(Cl)cc54)c3c2)cnc1N | 397 nM | 2040 nM
Cc1nc2cc(Nc3nc(Nc4ccc(F)cc4)nc(-c4ccc(Cl)cc4)n3)ccc2n1Cc1ccccc1 | 4940 nM | 88000 nM
C#CCn1cc(C=C2C(=O)NC(=S)NC2=O)c2cc(Cl)ccc21 | 2060 nM | 5080 nM
CN1CCN(CCCOc2ccc3ncnc(Nc4ccc(Oc5cccc(F)c5)c(Cl)c4)c3c2)CC1 | 1060 nM | 2530 nM
COc1ccc(CNC(=O)c2ccc(-c3cc(-c4nnc(C)o4)ccc3C)cc2)cc1 | 5140 nM | 21400 nM
Cc1ccc(NCCNCC(O)CO)c2c(=O)c3ccccc3sc12 (stereo not drawn) | 1390 nM | 2860 nM
O=C1c2cc3c(cc2-c2c1c1cc(F)c(F)cc1c(=O)n2C[C@H](O)CO)OCO3 | 37.9 nM | 206 nM
CCc1ccc(OCc2ccccc2C(=O)Nc2ccc3nc(C)cc(N)c3c2)cc1 | 1260 nM | 2800 nM
COC12C=C/C(=C(/C(=O)OCc3csc(SC)n3)C(=O)CCCCCCCCC3(OC)C=C/C(=C(/C(=O)OCc4cnc(SC)s4)C(=O)CCCCCCCC1)O3)O2 (stereo not drawn) | 3560 nM | 61300 nM
COc1ccc(-c2conc2-c2ccccc2)cc1 | 225 nM | > 100000 nM
CCOC(=O)C(=Cc1c(-c2ccccc2)[nH]c2ccccc12)C(=O)OCC | 3100 nM | 15400 nM
CN(C)CCCNc1c2ccccc2nc2c1oc1ccc(Cl)cc12 | 2760 nM | 11000 nM
NCCNc1nc2ccccc2c2c(=O)c3cc(F)cc(Cl)c3sc12 | 1730 nM | 3440 nM
Fc1ccc(-c2cc(-c3cn[nH]c3-c3ccccn3)ccn2)cc1 | > 25000 nM | > 25000 nM
NC(=O)c1c(NC(=O)c2cccc(C(F)(F)F)c2)sc2c1CCC(=O)C2 | 348 nM | 2900 nM
CC(=O)Nc1ccc2c(c1)CN1C(=O)c3ccccc3C1=N2 | > 100000 nM | > 100000 nM
COc1cccc(C2CC(=O)Nc3cc4c(cc32)CCC4)c1OC (stereo not drawn) | 1830 nM | 5450 nM
CC(=O)OC1Oc2cc(C)c(C)cc2-c2oc(=O)c(-c3ccccc3)cc21 (stereo not drawn) | 796 nM | 43900 nM
CCCCCCCCCCCCNC(=O)[C@H]1CSC(c2ccsc2)N1 (stereo partly drawn) | 846 nM | 1630 nM
COc1ccc(-c2nn(-c3cccc(Cl)c3)cc2/C=C2\C(=N)N(c3ccccc3)N=C2N)cc1 | 4150 nM | 45800 nM
